{
  "source": "paper PMC10584003",
  "about": "(The Journal of Clinical Endocrinology and Metabolism, 2023)",
  "key": {"[1]": {"system": "GLP-1R variants S79L, R421W, and A449V", "experiment": "β-arrestin 2 recruitment", "format": "cell-based, human", "conditions": "HEK293 cells, BRET with GRK6, LoS variants S79L"}, "GLP-1R A316T [2]": {"system": "GLP-1R A316T", "conditions": "A316T variant; agonist not given; ref [49]; cited from earlier work"}, "GLP-1R R310W": {"system": "GLP-1R R310W", "conditions": "top of transmembrane helix 5, agonist not given, ref [45]; cited from earlier work"}, "[3]": {"system": "26 WT-like GLP-1R variants", "experiment": "β-arrestin 2 recruitment", "format": "cell-based, human", "conditions": "HEK293 cells, BRET with GRK6, 26 WT-like variants"}, "[4]": {"system": "GLP-1R, alanine at position 353", "conditions": "alanine mutation at position 353; ref [46]; cited from earlier work"}, "GLP-1R A316T [5]": {"system": "GLP-1R A316T", "conditions": "A316T variant; agonist not given; ref [49]; cited from earlier work", "remark": "listed apart in the source"}, "[6]": {"system": "GLP-1R, alanine at position 87", "conditions": "ref [44]; cited from earlier work"}, "[7]": {"system": "GLP-1R P7L, R131Q, G168S, and A316T", "experiment": "GLP-1R signaling, variants P7L, R131Q, G168S, A316T", "format": "cell-based, human", "conditions": "present study, COS-7 and HEK-293 cells"}, "[8]": {"system": "GLP-1R, alanine at position 155", "conditions": "ref [46]; cited from earlier work"}, "[9]": {"system": "GLP-1R, alanine at position 87", "conditions": "ref [44]; cited from earlier work", "remark": "listed apart in the source"}, "[10]": {"system": "26 WT-like GLP-1R variants", "experiment": "cAMP measurement", "format": "cell-based, human", "conditions": "COS-7 cells"}, "[11]": {"system": "GLP-1R variants S79L, W87R, R310W, R421W, and A449V", "experiment": "Homologous competition binding, 5 LoS variants with maintained binding", "set-up": "species or system human", "conditions": "COS-7 cells"}, "GLP-1R R421C": {"system": "GLP-1R R421C", "conditions": "naturally occurring variant R421C; agonist not given; ref [42]; cited from earlier work"}, "[12]": {"system": "GLP-1R, alanine at position 155", "conditions": "ref [46]; cited from earlier work", "remark": "listed apart in the source"}, "[13]": {"system": "GLP-1R variants E34*, W87R, H99Qfs*83, S155F, F169Sfs*13, R310W, and T353M", "experiment": "β-arrestin 2 recruitment", "format": "cell-based, human", "conditions": "HEK293 cells, BRET with GRK6, LoS variants E34*"}, "GLP-1R F321S and F66L": {"system": "GLP-1R F321S and F66L", "experiment": "cAMP signaling, variants F66L and F321S", "format": "cell-based, human", "conditions": "COS-7 cells, predicted pLoF"}, "[14]": {"system": "GLP-1R variants E34*, H99Qfs*83, S155F, F169Sfs*13, and T353M", "experiment": "Homologous competition binding, 5 LoS variants without binding", "set-up": "species or system human", "conditions": "COS-7 cells, 125I-GLP-1(7-36)NH2, LoS variants E34*, F169Sfs*13, T353M"}},
  "note": "“Also recorded” adds a separate entry of the source.",
  "data": [
    {"substance": "glucagon-like peptide 1 [GLP-1]", "values": [
      {"measurement": "β-arrestin 2 recruitment, result in words", "setting": "[1]", "result": "maintained β-arrestin 2 recruitment"},
      {"measurement": "signaling and binding, A316T, result in words", "setting": "GLP-1R A316T [2]", "result": "WT-like signaling and binding properties"},
      {"measurement": "efficacy, R310W, result in words", "setting": "GLP-1R R310W", "result": "reduce efficacy"},
      {"measurement": "β-arrestin 2 recruitment, result in words", "setting": "[3]", "result": "WT-like β-arrestin 2 recruitment"},
      {"measurement": "β-arrestin 2 recruitment average Emax", "setting": "[3]; average, ± 6.6% (SEM)", "result": "90.2 % of WT"},
      {"measurement": "cAMP production, alanine at position 353, result in words", "setting": "[4]", "result": "altered cAMP production"},
      {"measurement": "β-arrestin recruitment, A316T", "setting": "GLP-1R A316T [5]", "result": "18 % of WT"},
      {"measurement": "GLP-1 binding, alanine at position 87, result in words", "setting": "[6]", "result": "no altered GLP-1 binding"},
      {"measurement": "GLP-1R signaling, result in words", "setting": "[7]", "result": "WT-like GLP-1R signaling"},
      {"measurement": "cAMP production, alanine at position 155, result in words", "setting": "[8]", "result": "affected cAMP production"},
      {"measurement": "cAMP signaling, alanine at position 87, result in words", "setting": "[9]", "result": "no altered GLP-1 binding or cAMP signaling"},
      {"measurement": "change in cAMP potency vs WT (WT-like criterion)", "setting": "[10]; 26 WT-like variants, EC50 change vs WT", "result": "< 5", "unit": "fold"},
      {"measurement": "cAMP Emax (WT-like criterion)", "setting": "[10]; 26 WT-like variants, Emax of at least 50% of the WT Emax", "result": "at least 50 % of the WT Emax"},
      {"measurement": "cAMP production, result in words", "setting": "[10]; 26 variants, compared to WT", "result": "cAMP production similar to WT GLP-1R"},
      {"measurement": "GLP-1 binding, result in words", "setting": "[11]", "result": "maintained GLP-1 binding"},
      {"measurement": "cAMP signaling, R421C, result in words", "setting": "GLP-1R R421C", "result": "no effect on cAMP signaling"},
      {"measurement": "GLP-1 affinity, alanine at position 155, result in words", "setting": "[12]", "result": "affected cAMP production and GLP-1 affinity"},
      {"measurement": "β-arrestin 2 recruitment, result in words", "setting": "[13]", "result": "completely lost β-arrestin 2 recruitment"},
      {"measurement": "cAMP signaling, result in words", "setting": "GLP-1R F321S and F66L", "result": "normal cAMP signaling"},
      {"measurement": "receptor binding, result in words", "setting": "[14]", "result": "complete loss of binding; also recorded: no GLP-1 binding"}
    ]}
  ]
}
